Results published in publication PMC6356742, “Novel Characteristics of Mitochondrial Electron Transport Chain from Eimeria tenella” (Genes, 2019).
Entries after “also recorded” stand apart in the source; their conditions may differ. Read-outs that look alike come from different tables or passages of the source. Each block holds one compound with its values, some of them ahead of it.

Assays:
[1] = test system: succinate-cytochrome c reductase activity (Complex II-III); experiment: Inhibition of succinate-cytochrome c reductase activity (Complex II-III) of E. tenella mitochondria-rich fraction; assay type: biochemical, Eimeria tenella; conditions: for IC50: E. tenella mitochondria-rich fraction, complex II-III activity, read-out: IC50 of Succinate-cyt c Activity
Protocol: (§1) All enzyme assays were performed using 5–10 µg of the mitochondria-rich fraction using black quartz cuvettes in 0.6 mL reaction mixture at 25 °C. The reagents used in each assay were mixed with a reaction buffer containing 50 mM potassium phosphate (pH 7.4) (KPi Buffer) and 2 mM EDTA.
Cytochrome c–linked NADH, G3P, malate, succinate, and DHO dehydrogenase activities were determined in a reaction mixture containing 30 µM horse heart cytochrome c and 2 mM KCN at 550 nm (ε = 19 mM^−1 cm^−1) by adding 0.2 mM NADH, 5 mM malate, 5 mM G3P, 8.3 mM succinate, and 0.4 mM DHO, respectively, into the reaction buffer.
(§2) […]; As the positive control for complex II-III inhibition assay, 0.1 μM of stigmatellin (complex III inhibitor) was used.

[2] = test system: Succinate-cyt c activity; conditions: Porcine; cited from earlier work
[3] = test system: complex II; design: method as in PMID 19505951; conditions: read-out: IC50 for complex II from T. cruzi; cited from earlier work
[4] = test system: Succinate-cyt c activity; conditions: Rat; cited from earlier work
[5] = test system: complex II; design: method as in PMID 19505951; conditions: read-out: IC50 for complex II from L. donovani; cited from earlier work
[6] = biological target: E. tenella complex II (Eimeria tenella, UniProt U6KGY0+U6KWN9); experiment: Inhibition of succinate-dUQ (SQR) activity of E. tenella complex II; assay type: biochemical; conditions: for Inhibition of E. tenella complex II: even at higher concentration of 50 μM
E. tenella complex II, sequence (U6KGY0 entry or part of it): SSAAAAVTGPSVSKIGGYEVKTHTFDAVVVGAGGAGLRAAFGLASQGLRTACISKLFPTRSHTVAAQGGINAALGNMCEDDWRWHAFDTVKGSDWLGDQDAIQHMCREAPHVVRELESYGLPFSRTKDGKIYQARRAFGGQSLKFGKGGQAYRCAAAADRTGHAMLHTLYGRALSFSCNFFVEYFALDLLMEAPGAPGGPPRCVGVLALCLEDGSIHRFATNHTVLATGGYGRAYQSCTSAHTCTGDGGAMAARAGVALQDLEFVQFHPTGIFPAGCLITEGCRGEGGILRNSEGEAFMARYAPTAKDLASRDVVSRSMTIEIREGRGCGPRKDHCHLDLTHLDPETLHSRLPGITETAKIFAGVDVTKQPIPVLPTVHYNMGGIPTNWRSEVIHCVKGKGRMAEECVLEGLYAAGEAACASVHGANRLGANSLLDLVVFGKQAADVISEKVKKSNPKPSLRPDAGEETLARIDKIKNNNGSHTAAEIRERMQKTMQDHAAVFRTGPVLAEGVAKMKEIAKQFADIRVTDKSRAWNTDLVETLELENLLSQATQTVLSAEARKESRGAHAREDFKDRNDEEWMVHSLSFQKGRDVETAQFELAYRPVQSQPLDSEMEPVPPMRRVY
E. tenella complex II, sequence (U6KWN9 entry or part of it): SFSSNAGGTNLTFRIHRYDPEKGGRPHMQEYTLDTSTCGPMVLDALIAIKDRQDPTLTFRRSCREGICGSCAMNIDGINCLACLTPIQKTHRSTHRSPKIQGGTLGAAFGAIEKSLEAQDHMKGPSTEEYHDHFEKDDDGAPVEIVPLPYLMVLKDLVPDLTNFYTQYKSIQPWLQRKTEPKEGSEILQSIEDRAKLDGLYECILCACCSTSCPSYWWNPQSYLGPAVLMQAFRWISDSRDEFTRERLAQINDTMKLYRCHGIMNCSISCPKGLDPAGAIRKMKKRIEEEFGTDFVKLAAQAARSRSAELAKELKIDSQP
Protocol: as §1
Individual G3PDH, MQO, SDH, and DHODH activities were assayed at 278 nm in the presence of each substrate as described above, however, instead of cytochrome c, 50 µM of decylubiquinone (dUQ) (ε = 15 mM^−1 cm^−1) was added. The NDH-2 activity was measured following the consumption of NADH at 340 nm.
as §2

[7] = test system: complex II; design: method as in PMID 19505951; conditions: read-out: IC50 for complex II from Leishmania tarentolae; cited from earlier work
[8] = test system: complex II; design: method as in PMID 19505951; conditions: read-out: IC50 for complex II from Trypanosoma brucei; cited from earlier work
[9] = test system: NADH oxidase activity (NDH-2-Complex III-IV); experiment: NADH oxidase activity (NDH-2-Complex III-IV) of E. tenella mitochondria-rich fraction; assay type: biochemical, Eimeria tenella; conditions: for NADH oxidase specific activity after addition: consecutive additions: 2 mM KCN, then 2 mM fumarate, then 5 mM malonate, without additions 5.9 ± 0.9, experiment C
[10] = test system: bovine complex II; conditions: cited from earlier work
[11] = test system: P. y. yoelii complex II; conditions: cited from earlier work; for IC50: P. y. yoelii, read-out: IC50 of Succinate-cyt c Activity
[12] = test system: Ascaris suum complex II; conditions: cited from earlier work

SMILES: C/C=C(C)/C=C/C=C/[C@H](OC)[C@@H](C)[C@@H](OC)[C@@H](C)CCc1oc2c(O)c(OC)cc(OC)c2c(=O)c1C [Stigmatellin, stigmatellin]
Percentage inhibition of succinate-cyt c activity ([1]; E. tenella, 100 nM stigmatellin, positive control for complex III inhibition): 78.4 ± 13.1% ^2

IC50 [1]: 4 ± 0.6 µM | Inhibition of the SQR activity of complex II ([6]; E. tenella): did not inhibit | IC50 ([6]; E. tenella, SQR activity of complex II, read-out: IC50 determined for succinate-dUQ activity): > 50 µM | Inhibition of E. tenella complex II [6]: did not inhibit
SMILES: Cc1cc(O)c2c(c1)O[C@@]1(C)CC[C@H]3C(C)(C)CCC[C@]34CO[C@@H]2[C@H]41 [Siccanin, siccanin]
IC50 [2]: 861 ± 822 µM | IC50 [3]: 1.48 µM | IC50 [4]: 9.3 ± 1 µM | IC50 [5]: 1.17 µM | IC50 [7]: 0.19 µM | IC50 [8]: 0.368 µM

SMILES: O=C(O)CC(=O)O [malonate]
Effect on NADH oxidase / fumarate-dependent NADH oxidation activity ([9]; 2 mM KCN on NADH oxidase, 5 mM malonate on fumarate-restored activity in presence of KCN): abolished; also recorded: completely inhibited | NADH oxidase specific activity after addition [9]: −0.5 ± 0.3 μmol/min/mg protein

SMILES: COc1[nH]c(=O)c(C(=O)[C@@H](C)C[C@H](C)[C@@H](Cl)CCl)c(O)c1OC [Atpenin A5, atpenin A5]
IC50 [10]: 0.004 µM | IC50 [4]: 0.007 ± 0.0003 µM | IC50 [11]: 4.2 ± 0.2 µM | Fold lower sensitivity of P. y. yoelii complex II to atpenin A5 [11]: about 600 fold | IC50 [1]: > 50 µM

SMILES: CC1=C(C(=O)Nc2ccccc2)SCCO1 [Carboxin, carboxin]
IC50 [10]: 1 µM | IC50 [4]: 3.8 ± 0.1 µM | IC50 [11]: 3.6 ± 1 µM | IC50 [1]: > 50 µM | Inhibition of E. tenella complex II [6]: did not inhibit

SMILES: CC(C)Oc1cccc(NC(=O)c2ccccc2C(F)(F)F)c1 [Flutolanil, flutolanil]
IC50 [12]: 0.081 µM | IC50 [2]: > 50 µM | IC50 [4]: > 100 µM | IC50 [11]: > 100 µM | IC50 [1]: > 50 µM | Inhibition of E. tenella complex II [6]: did not inhibit

SMILES: O=C(O)/C=C/C(=O)O [fumarate]
NADH oxidase specific activity after addition [9]: 1.3 ± 0.3 μmol/min/mg protein
